Among the data in BindingDB's records for doi:10.1021/jm990281p (Parke-Davis Pharmaceutical Research, 2000) are IC50 and Ki values, retold here.

Experiment [1] has as its target T1, Gag-Pol polyprotein [489-587] (Human immunodeficiency virus 1, UniProt P04585).
T1 construct: 489-587
The experiment in a line: Protease Inhibition Assay. The procedure: (§1) Sensitivity of HIV-1 protease activity to protease inhibitors was determined by a peptide substrate cleavage assay. Protease products were analyzed on a reverse-phase high-pressure liquid chromatograph.

For experiment [2], the target named is T2, Dimer of Gag-Pol polyprotein [489-587] (Human immunodeficiency virus 1, UniProt P12497).
T2 construct: 489-587
The experiment in a line: Protease Inhibition Assay. As to the method:
as §1

In general, IC50 refers to the concentration that gives 50% inhibition. The low end stands for greater potency in that assay, the high end for weaker potency in that assay. With `Cc1cc(SC2C(=O)CC(CCc3ccc(N)cc3)(C(C)C)OC2=O)c(C(C)(C)C)cc1OS(=O)(=O)c1cccnc1` (centres undefined), it took 4.1 nM to reach half-maximal inhibition in experiment [1] (IC50).

`Cc1cc(SC2C(=O)CC(CCc3ccc(O)cc3)(CC(C)C)OC2=O)c(C(C)(C)C)cc1OS(=O)(=O)c1nccn1C` (centres undefined) [5-tert-butyl-4-({4-hydroxy-6-[2-(4-hydroxyphenyl)ethyl]-6-(2-methylpropyl)-2-oxo-5,6-dihydro-2H-pyran-3-yl}sulfanyl)-2-methylphenyl 1-methyl-1H-imidazole-2-sulfonate] returned an IC50 in experiment [2] of 3.6 nM.

Regarding `Cc1cc(SC2C(=O)CC(C)(CCc3ccc(O)cc3)OC2=O)c(C(C)(C)C)cc1NS(=O)(=O)c1nccn1C` (centres undefined) [N-[5-tert-butyl-4-({4-hydroxy-6-[2-(4-hydroxyphenyl)ethyl]-6-methyl-2-oxo-5,6-dihydro-2H-pyran-3-yl}sulfanyl)-2-methylphenyl]-1-methyl-1H-imidazole-2-sulfonamide], in experiment [2] (pH 6.2, 37 °C), the IC50 amounted to 1.9 nM.

Consider `Cc1cc(SC2C(=O)CC(CCc3ccccc3)(C(C)C)OC2=O)c(C(C)(C)C)cc1NS(=O)(=O)c1nccn1C` (centres undefined) [N-(5-tert-butyl-4-{[4-hydroxy-2-oxo-6-(2-phenylethyl)-6-(propan-2-yl)-5,6-dihydro-2H-pyran-3-yl]sulfanyl}-2-methylphenyl)-1-methyl-1H-imidazole-2-sulfonamide], for which, in experiment [2], the IC50 is 1.9 nM.

What is called Ki is the dissociation constant of the complex between target and ligand, obtained from inhibition or displacement. Low values mean tighter binding, high ones weaker binding. As for `Cc1cc(SC2C(=O)C[C@](CCc3ccc(O)cc3)(C(C)C)OC2=O)c(C(C)(C)C)cc1N` (stereo partly drawn) [(6R)-3-[(4-amino-2-tert-butyl-5-methylphenyl)sulfanyl]-4-hydroxy-6-[2-(4-hydroxyphenyl)ethyl]-6-(propan-2-yl)-5,6-dihydro-2H-pyran-2-one], in experiment [2], the Ki was determined as 13 nM.

On to `Cc1cc(SC2C(=O)C[C@](CCc3ccccc3)(C(C)C)OC2=O)c(C(C)(C)C)cc1NS(=O)(=O)c1ccc(C(F)(F)F)cn1` (stereo partly drawn) [N-(5-tert-butyl-4-{[(6R)-4-hydroxy-2-oxo-6-(2-phenylethyl)-6-(propan-2-yl)-5,6-dihydro-2H-pyran-3-yl]sulfanyl}-2-methylphenyl)-5-(trifluoromethyl)pyridine-2-sulfonamide], for which the affinity in experiment [2] corresponds to a Ki of 6.4 nM.

The compound `Cc1cc(SC2C(=O)CC(CCc3ccccc3)(C(C)C)OC2=O)c(C(C)(C)C)cc1OS(=O)(=O)c1nccn1C` (centres undefined) [5-tert-butyl-4-{[4-hydroxy-2-oxo-6-(2-phenylethyl)-6-(propan-2-yl)-5,6-dihydro-2H-pyran-3-yl]sulfanyl}-2-methylphenyl 1-methyl-1H-imidazole-2-sulfonate] returned an IC50 in experiment [2] of 3 nM.

In turn, `Cc1cc(SC2C(=O)C[C@](CCc3ccc(O)cc3)(C(C)C)OC2=O)c(C(C)(C)C)cc1NS(=O)(=O)c1ccc(C(F)(F)F)cn1` (stereo partly drawn) [N-(5-tert-butyl-4-{[(6R)-4-hydroxy-6-[2-(4-hydroxyphenyl)ethyl]-2-oxo-6-(propan-2-yl)-5,6-dihydro-2H-pyran-3-yl]sulfanyl}-2-methylphenyl)-5-(trifluoromethyl)pyridine-2-sulfonamide] registered a Ki in experiment [2] of 9.54 nM.

`Cc1cc(SC2C(=O)CC(CCc3ccc(O)cc3)(C(C)C)OC2=O)c(C(C)(C)C)cc1OS(C)(=O)=O` (centres undefined) [5-tert-butyl-4-({4-hydroxy-6-[2-(4-hydroxyphenyl)ethyl]-2-oxo-6-(propan-2-yl)-5,6-dihydro-2H-pyran-3-yl}sulfanyl)-2-methylphenyl methanesulfonate] returned an IC50 in experiment [2] of 2.2 nM.

For `Cc1cc(SC2C(=O)CC(CCc3ccc(N)cc3)(C(C)C)OC2=O)c(C(C)(C)C)cc1OS(=O)(=O)c1nccn1C` (centres undefined) [4-({6-[2-(4-aminophenyl)ethyl]-4-hydroxy-2-oxo-6-(propan-2-yl)-5,6-dihydro-2H-pyran-3-yl}sulfanyl)-5-tert-butyl-2-methylphenyl 1-methyl-1H-imidazole-2-sulfonate], half-maximal inhibition in experiment [2] (IC50) was put at 2.2 nM.

As to `Cc1cc(SC2C(=O)CC(CCc3ccc(N)cc3)(C(C)C)OC2=O)c(C(C)(C)C)cc1OS(=O)(=O)c1ccccc1-c1cccs1` (centres undefined) [4-({6-[2-(4-aminophenyl)ethyl]-4-hydroxy-2-oxo-6-(propan-2-yl)-5,6-dihydro-2H-pyran-3-yl}sulfanyl)-5-tert-butyl-2-methylphenyl 2-(thiophen-2-yl)benzene-1-sulfonate], inhibition in experiment [2] was half-maximal at 18.5 nM (IC50).

In experiment [2] (pH 6.2, 37 °C), `Cc1cc(SC2C(=O)CC(C)(CCc3ccc(O)cc3)OC2=O)c(C(C)(C)C)cc1NS(=O)(=O)c1cccc(-c2cccs2)c1` (centres undefined) [N-[5-tert-butyl-4-({4-hydroxy-6-[2-(4-hydroxyphenyl)ethyl]-6-methyl-2-oxo-5,6-dihydro-2H-pyran-3-yl}sulfanyl)-2-methylphenyl]-3-(thiophen-2-yl)benzene-1-sulfonamide] yielded an IC50 of 6.3 nM.

For `Cc1cc(SC2C(=O)CC(CCc3ccc(N)cc3)(C(C)C)OC2=O)c(C(C)(C)C)cc1OS(=O)(=O)c1cccc(-c2cccnc2)c1` (centres undefined) [4-({6-[2-(4-aminophenyl)ethyl]-4-hydroxy-2-oxo-6-(propan-2-yl)-5,6-dihydro-2H-pyran-3-yl}sulfanyl)-5-tert-butyl-2-methylphenyl 3-(pyridin-3-yl)benzene-1-sulfonate], the IC50 in experiment [2] was found to be 4.1 nM.

Compound `CCCC1(CCc2ccc(O)cc2)CC(=O)C(Sc2cc(C)c(OS(=O)(=O)c3nccn3C)cc2C(C)(C)C)C(=O)O1` (centres undefined) [5-tert-butyl-4-({4-hydroxy-6-[2-(4-hydroxyphenyl)ethyl]-2-oxo-6-propyl-5,6-dihydro-2H-pyran-3-yl}sulfanyl)-2-methylphenyl 1-methyl-1H-imidazole-2-sulfonate] displayed an IC50 in experiment [2] of 2.2 nM.

`Cc1cc(SC2C(=O)CC(C)(CCc3ccc(O)cc3)OC2=O)c(C(C)(C)C)cc1OS(=O)(=O)c1nccn1C` (centres undefined) [5-tert-butyl-4-({4-hydroxy-6-[2-(4-hydroxyphenyl)ethyl]-6-methyl-2-oxo-5,6-dihydro-2H-pyran-3-yl}sulfanyl)-2-methylphenyl 1-methyl-1H-imidazole-2-sulfonate] displayed an IC50 in experiment [2] of 2 nM.

For `Cc1cc(SC2C(=O)CC(CCc3ccc(O)cc3)(C(C)C)OC2=O)c(C(C)(C)C)cc1OS(=O)(=O)c1nccn1C` (centres undefined) [5-tert-butyl-4-({4-hydroxy-6-[2-(4-hydroxyphenyl)ethyl]-2-oxo-6-(propan-2-yl)-5,6-dihydro-2H-pyran-3-yl}sulfanyl)-2-methylphenyl 1-methyl-1H-imidazole-2-sulfonate], in experiment [2], the IC50 was 2.4 nM.

With `Cc1cc(SC2C(=O)CC(CCc3ccccc3)(C(C)C)OC2=O)c(C(C)(C)C)cc1NS(=O)(=O)c1ccc(C(F)(F)F)cn1` (centres undefined) [N-(5-tert-butyl-4-{[4-hydroxy-2-oxo-6-(2-phenylethyl)-6-(propan-2-yl)-5,6-dihydro-2H-pyran-3-yl]sulfanyl}-2-methylphenyl)-5-(trifluoromethyl)pyridine-2-sulfonamide], in experiment [2], the affinity corresponds to a Ki of 1.04 nM.

For `Cc1cc(SC2C(=O)CC(CCc3ccccc3)(C(C)C)OC2=O)c(C(C)(C)C)cc1NS(=O)(=O)c1ccc(C#N)cc1` (centres undefined) [N-(5-tert-butyl-4-{[4-hydroxy-2-oxo-6-(2-phenylethyl)-6-(propan-2-yl)-5,6-dihydro-2H-pyran-3-yl]sulfanyl}-2-methylphenyl)-4-cyanobenzene-1-sulfonamide], the IC50 in experiment [2] (pH 6.2, 37 °C) came to 9.1 nM.

In turn, `Cc1cc(SC2C(=O)CC(CCc3ccc(O)cc3)(C3CCCCC3)OC2=O)c(C(C)(C)C)cc1OS(=O)(=O)c1nccn1C` (centres undefined) [5-tert-butyl-4-({6-cyclohexyl-4-hydroxy-6-[2-(4-hydroxyphenyl)ethyl]-2-oxo-5,6-dihydro-2H-pyran-3-yl}sulfanyl)-2-methylphenyl 1-methyl-1H-imidazole-2-sulfonate] returned an IC50 in experiment [2] of 8 nM.
